Laboratory results reported in the supplement of paper PMC13380429.

Columns and labels:
Conditions in all cases: 72 h
Caco-2 [1] = test: cell viability relative to DMSO; higher = less toxic
Calu-3 [2] = test: as above
HepG2 [3] = test: as above
Caco-2 [4] = test: relative viability EC50 (midpoint between 100% and the lowest measured viability); higher = less toxic
Calu-3 [5] = test: as above
HepG2 [6] = test: as above
Caco-2 [7] = test: drug sensitivity score (DSS) for viability; higher = more toxic; extreme values may be limits of the assay
Calu-3 [8] = test: as above
HepG2 [9] = test: as above
U2OS [10] = test: as above
Vero E6 [11] = test: as above
U2OS [12] = test: cell viability relative to DMSO; higher = less toxic
Vero E6 [13] = test: as above
U2OS [14] = test: relative viability EC50 (midpoint between 100% and the lowest measured viability); higher = less toxic

## Cc1nc(N)sc1CCN [amthamine]
Caco-2 [1]; 1 nM
  cell viability: 96.3%
Caco-2 [1]; 10 nM
  cell viability: 95.3%
Caco-2 [1]; 100 nM
  cell viability: 87.4%
Caco-2 [1]; 1000 nM
  cell viability: 92.4%
Caco-2 [1]; 10000 nM
  cell viability: 96.5%
Calu-3 [2]; 1 nM
  cell viability: 98.2%
Calu-3 [2]; 10 nM
  cell viability: 97.3%
Calu-3 [2]; 100 nM
  cell viability: 105%
Calu-3 [2]; 1000 nM
  cell viability: 109%
Calu-3 [2]; 10000 nM
  cell viability: 109%
HepG2 [3]; 1 nM
  cell viability: 104%
HepG2 [3]; 10 nM
  cell viability: 105%
HepG2 [3]; 100 nM
  cell viability: 106%
HepG2 [3]; 1000 nM
  cell viability: 122%
HepG2 [3]; 10000 nM
  cell viability: 99.4%
Caco-2 [4]
  relative viability EC50: > 10 µM
Calu-3 [5]
  relative viability EC50: > 10 µM
HepG2 [6]
  relative viability EC50: > 10 µM
Caco-2 [7]
  drug sensitivity score: 0
Calu-3 [8]
  drug sensitivity score: 0
HepG2 [9]
  drug sensitivity score: 0

## O=C(CCCl)NCc1ccccc1 [beclamide]
Calu-3 [8]
  drug sensitivity score: 0
HepG2 [9]
  drug sensitivity score: 0
U2OS [10]
  drug sensitivity score: 0
Vero E6 [11]
  drug sensitivity score: 0

## Cc1c(N)nc([C@H](CC(N)=O)NC[C@H](N)C(N)=O)nc1C(=O)N[C@H](C(=O)N[C@H](C)[C@@H](O)[C@H](C)C(=O)N[C@H](C(=O)NCCc1nc(-c2nc(C(=O)NCCCNCCCCN)cs2)cs1)[C@@H](C)O)[C@@H](O[C@@H]1O[C@@H](CO)[C@@H](O)[C@H](O)[C@@H]1O[C@@H]1O[C@H](CO)[C@@H](O)[C@H](OC(N)=O)[C@@H]1O)c1cnc[nH]1 [bleomycetin]
Caco-2 [1]; 1 nM
  cell viability: 106%
Caco-2 [1]; 10 nM
  cell viability: 102%
Caco-2 [1]; 100 nM
  cell viability: 100%
Caco-2 [1]; 1000 nM
  cell viability: 90.9%
Caco-2 [1]; 10000 nM
  cell viability: 78.7%
Calu-3 [2]; 1 nM
  cell viability: 94%
Calu-3 [2]; 10 nM
  cell viability: 95.4%
Calu-3 [2]; 100 nM
  cell viability: 93.1%
Calu-3 [2]; 1000 nM
  cell viability: 76.5%
Calu-3 [2]; 10000 nM
  cell viability: 51.3%
HepG2 [3]; 1 nM
  cell viability: 99.4%
HepG2 [3]; 10 nM
  cell viability: 104%
HepG2 [3]; 100 nM
  cell viability: 98.1%
HepG2 [3]; 1000 nM
  cell viability: 82.7%
HepG2 [3]; 10000 nM
  cell viability: 59.9%
U2OS [12]; 1 nM
  cell viability: 101%
U2OS [12]; 10 nM
  cell viability: 97.7%
U2OS [12]; 100 nM
  cell viability: 99.8%
U2OS [12]; 1000 nM
  cell viability: 83.3%
U2OS [12]; 10000 nM
  cell viability: 68.7%
Vero E6 [13]; 1 nM
  cell viability: 106%
Vero E6 [13]; 10 nM
  cell viability: 103%
Vero E6 [13]; 100 nM
  cell viability: 106%
Vero E6 [13]; 1000 nM
  cell viability: 82.4%
Vero E6 [13]; 10000 nM
  cell viability: 64.2%
Caco-2 [4]
  relative viability EC50: > 10 µM
Caco-2 [7]
  drug sensitivity score: 1.7
Calu-3 [8]
  drug sensitivity score: 5.2
HepG2 [9]
  drug sensitivity score: 4
U2OS [10]
  drug sensitivity score: 3.4
Vero E6 [11]
  drug sensitivity score: 3.9

## O=C(CCCN1CCC(O)(c2ccc(Br)cc2)CC1)c1ccc(F)cc1 [bromperidol]
Calu-3 [8]
  drug sensitivity score: 0
HepG2 [9]
  drug sensitivity score: 0.8
U2OS [10]
  drug sensitivity score: 0
Vero E6 [11]
  drug sensitivity score: 0

## Cc1ccc(S(=O)(=O)NCl)cc1 [chloramine-T]
Caco-2 [1]; 1 nM
  cell viability: 99.5%
Caco-2 [1]; 10 nM
  cell viability: 104%
Caco-2 [1]; 100 nM
  cell viability: 92.2%
Caco-2 [1]; 1000 nM
  cell viability: 101%
Caco-2 [1]; 10000 nM
  cell viability: 99.2%
Calu-3 [2]; 1 nM
  cell viability: 102%
Calu-3 [2]; 10 nM
  cell viability: 107%
Calu-3 [2]; 100 nM
  cell viability: 92.2%
Calu-3 [2]; 1000 nM
  cell viability: 101%
Calu-3 [2]; 10000 nM
  cell viability: 92.6%
HepG2 [3]; 1 nM
  cell viability: 101%
HepG2 [3]; 10 nM
  cell viability: 98.5%
HepG2 [3]; 100 nM
  cell viability: 104%
HepG2 [3]; 1000 nM
  cell viability: 102%
HepG2 [3]; 10000 nM
  cell viability: 102%
U2OS [12]; 1 nM
  cell viability: 105%
U2OS [12]; 10 nM
  cell viability: 97.7%
U2OS [12]; 100 nM
  cell viability: 105%
U2OS [12]; 1000 nM
  cell viability: 99.1%
U2OS [12]; 10000 nM
  cell viability: 99.4%
Caco-2 [4]
  relative viability EC50: > 10 µM
Calu-3 [5]
  relative viability EC50: > 10 µM
HepG2 [6]
  relative viability EC50: > 10 µM
U2OS [14]
  relative viability EC50: > 10 µM
Caco-2 [7]
  drug sensitivity score: 0
Calu-3 [8]
  drug sensitivity score: 0
HepG2 [9]
  drug sensitivity score: 0
U2OS [10]
  drug sensitivity score: 0

## O=c1ccc2ccccc2o1 [coumarin]
Caco-2 [1]; 1 nM
  cell viability: 96.5%
Caco-2 [1]; 10 nM
  cell viability: 97.6%
Caco-2 [1]; 100 nM
  cell viability: 99.2%
Caco-2 [1]; 1000 nM
  cell viability: 95.9%
Caco-2 [1]; 10000 nM
  cell viability: 95.5%
Calu-3 [2]; 1 nM
  cell viability: 97.7%
Calu-3 [2]; 10 nM
  cell viability: 90.9%
Calu-3 [2]; 100 nM
  cell viability: 95.6%
Calu-3 [2]; 1000 nM
  cell viability: 105%
Calu-3 [2]; 10000 nM
  cell viability: 88.6%
HepG2 [3]; 1 nM
  cell viability: 91.8%
HepG2 [3]; 10 nM
  cell viability: 107%
HepG2 [3]; 100 nM
  cell viability: 106%
HepG2 [3]; 1000 nM
  cell viability: 96.7%
HepG2 [3]; 10000 nM
  cell viability: 111%
U2OS [12]; 1 nM
  cell viability: 100%
U2OS [12]; 10 nM
  cell viability: 98.1%
U2OS [12]; 100 nM
  cell viability: 96.1%
U2OS [12]; 1000 nM
  cell viability: 99.1%
U2OS [12]; 10000 nM
  cell viability: 98.1%
Caco-2 [4]
  relative viability EC50: > 10 µM
Calu-3 [5]
  relative viability EC50: > 10 µM
HepG2 [6]
  relative viability EC50: > 10 µM
U2OS [14]
  relative viability EC50: > 10 µM
Caco-2 [7]
  drug sensitivity score: 0
Calu-3 [8]
  drug sensitivity score: 0
HepG2 [9]
  drug sensitivity score: 0
U2OS [10]
  drug sensitivity score: 0

## CN(CC(=O)O)C(=N)N [creatine]
Calu-3 [8]
  drug sensitivity score: 0
HepG2 [9]
  drug sensitivity score: 0
U2OS [10]
  drug sensitivity score: 0

## CN[C@@H](C)[C@H]1[C@H](O)C[C@@]2(C)[C@@H]3CC[C@H]4C(C)(C)[C@@H](NC)CC[C@@]45C[C@@]35CC[C@]12C [cyclovirobuxin-D]
Caco-2 [1]; 1 nM
  cell viability: 101%
Caco-2 [1]; 10 nM
  cell viability: 92.1%
Caco-2 [1]; 100 nM
  cell viability: 91.2%
Caco-2 [1]; 1000 nM
  cell viability: 90.1%
Caco-2 [1]; 10000 nM
  cell viability: 90.6%
Calu-3 [2]; 1 nM
  cell viability: 102%
Calu-3 [2]; 10 nM
  cell viability: 94.7%
Calu-3 [2]; 100 nM
  cell viability: 98.6%
Calu-3 [2]; 1000 nM
  cell viability: 99.2%
Calu-3 [2]; 10000 nM
  cell viability: 102%
HepG2 [3]; 1 nM
  cell viability: 96.3%
HepG2 [3]; 10 nM
  cell viability: 99.5%
HepG2 [3]; 100 nM
  cell viability: 91.5%
HepG2 [3]; 1000 nM
  cell viability: 99%
HepG2 [3]; 10000 nM
  cell viability: 99.1%
U2OS [12]; 1 nM
  cell viability: 101%
U2OS [12]; 10 nM
  cell viability: 96.3%
U2OS [12]; 100 nM
  cell viability: 99.4%
U2OS [12]; 1000 nM
  cell viability: 99.8%
U2OS [12]; 10000 nM
  cell viability: 97.6%
Caco-2 [4]
  relative viability EC50: > 10 µM
Calu-3 [5]
  relative viability EC50: > 10 µM
HepG2 [6]
  relative viability EC50: > 10 µM
U2OS [14]
  relative viability EC50: > 10 µM
Caco-2 [7]
  drug sensitivity score: 0
Calu-3 [8]
  drug sensitivity score: 0
HepG2 [9]
  drug sensitivity score: 0
U2OS [10]
  drug sensitivity score: 0

## CO[C@H]1C[C@H](O[C@H]2[C@H](C)O[C@@H](O[C@@H]3/C(C)=C/C[C@@H]4C[C@@H](C[C@]5(C=C[C@H](C)[C@@H](C6CCCCC6)O5)O4)OC(=O)[C@@H]4C=C(C)[C@@H](O)[C@H]5OC/C(=C\C=C\[C@@H]3C)[C@]54O)C[C@@H]2OC)O[C@@H](C)[C@@H]1O [doramectin]
Caco-2 [1]; 1 nM
  cell viability: 102%
Caco-2 [1]; 10 nM
  cell viability: 92.9%
Caco-2 [1]; 100 nM
  cell viability: 93.9%
Caco-2 [1]; 1000 nM
  cell viability: 96.8%
Caco-2 [1]; 10000 nM
  cell viability: 62.5%
Calu-3 [2]; 1 nM
  cell viability: 102%
Calu-3 [2]; 10 nM
  cell viability: 95.4%
Calu-3 [2]; 100 nM
  cell viability: 105%
Calu-3 [2]; 1000 nM
  cell viability: 93.8%
Calu-3 [2]; 10000 nM
  cell viability: 75%
HepG2 [3]; 1 nM
  cell viability: 112%
HepG2 [3]; 10 nM
  cell viability: 104%
HepG2 [3]; 100 nM
  cell viability: 98.1%
HepG2 [3]; 1000 nM
  cell viability: 108%
HepG2 [3]; 10000 nM
  cell viability: 44.9%
U2OS [12]; 1 nM
  cell viability: 98.1%
U2OS [12]; 10 nM
  cell viability: 95.7%
U2OS [12]; 100 nM
  cell viability: 92.6%
U2OS [12]; 1000 nM
  cell viability: 88.5%
U2OS [12]; 10000 nM
  cell viability: 56.6%
Vero E6 [13]; 1 nM
  cell viability: 103%
Vero E6 [13]; 10 nM
  cell viability: 96.3%
Vero E6 [13]; 100 nM
  cell viability: 91.1%
Vero E6 [13]; 1000 nM
  cell viability: 98.1%
Vero E6 [13]; 10000 nM
  cell viability: 72.4%
Calu-3 [5]
  relative viability EC50: > 10 µM
HepG2 [6]
  relative viability EC50: 3.76 µM
Caco-2 [7]
  drug sensitivity score: 2.3
Calu-3 [8]
  drug sensitivity score: 1.8
HepG2 [9]
  drug sensitivity score: 2.5
U2OS [10]
  drug sensitivity score: 3.7
Vero E6 [11]
  drug sensitivity score: 1.4

## O=C(O)[C@@H]1C[C@@H](C2CCCCC2)CN1C(=O)CP(=O)(O)CCCCc1ccccc1 [fosinoprilat]
Caco-2 [1]; 1 nM
  cell viability: 97.6%
Caco-2 [1]; 10 nM
  cell viability: 88.5%
Caco-2 [1]; 100 nM
  cell viability: 105%
Caco-2 [1]; 1000 nM
  cell viability: 90.4%
Caco-2 [1]; 10000 nM
  cell viability: 102%
Calu-3 [2]; 1 nM
  cell viability: 99.4%
Calu-3 [2]; 10 nM
  cell viability: 98.8%
Calu-3 [2]; 100 nM
  cell viability: 98.4%
Calu-3 [2]; 1000 nM
  cell viability: 95.1%
Calu-3 [2]; 10000 nM
  cell viability: 108%
HepG2 [3]; 1 nM
  cell viability: 105%
HepG2 [3]; 10 nM
  cell viability: 104%
HepG2 [3]; 100 nM
  cell viability: 96.2%
HepG2 [3]; 1000 nM
  cell viability: 101%
HepG2 [3]; 10000 nM
  cell viability: 101%
U2OS [12]; 1 nM
  cell viability: 99.6%
U2OS [12]; 10 nM
  cell viability: 93.7%
U2OS [12]; 100 nM
  cell viability: 97.5%
U2OS [12]; 1000 nM
  cell viability: 95%
U2OS [12]; 10000 nM
  cell viability: 97.1%
Caco-2 [4]
  relative viability EC50: > 10 µM
Calu-3 [5]
  relative viability EC50: > 10 µM
HepG2 [6]
  relative viability EC50: > 10 µM
U2OS [14]
  relative viability EC50: > 10 µM
Caco-2 [7]
  drug sensitivity score: 0
Calu-3 [8]
  drug sensitivity score: 0
HepG2 [9]
  drug sensitivity score: 0
U2OS [10]
  drug sensitivity score: 0
